These results are taken from PubChem BioAssay (NCI).

SMILES strings stand for the structures. “And” between values parts separate entries of the source, which are not always exact repeats. Equal entries are not always repeated.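 Step 1: Grow cells in 96-well plates. Step 2: Expose to compound for 48 hours at 5 concentrations. Step 3: Interpolate endpoints linearly; if unreached, use highest concentration. Here, GI50 denotes the concentration required for 50% inhibition of growth. Definition used: TGI = concentration required for complete inhibition of growth.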

Some test systems named below: HCT-116 colon; HCT-15 colon; KM12 colon; MOLT-4 leukemia; OVCAR-5 ovarian; RPMI-8226 leukemia; SNB-75 CNS; SR leukemia; UACC-257 melanoma; UO-31 renal.
What all share (assay): growth of human tumour cells (NCI), 48 h

With `CC1c2ccccc2N=C2SC(=S)N3CCN=C3N21` (stereo not given), the GI50 in the assay with HCT-116 colon, in the assay on HCT-15 colon, with KM12 colon, with MOLT-4 leukemia, with OVCAR-5 ovarian and in the assay with RPMI-8226 leukemia was > 100 µM each time. Further, the GI50 with SNB-75 CNS, in the assay on SR leukemia, in the assay on UACC-257 melanoma and with UO-31 renal was > 100 µM each time. Besides, the TGI in the assay on HCT-116 colon, in the assay with HCT-15 colon, in the assay on KM12 colon, in the assay with MOLT-4 leukemia, with OVCAR-5 ovarian and with RPMI-8226 leukemia was > 100 µM throughout. Besides, the TGI in the assay on SNB-75 CNS, in the assay with SR leukemia, in the assay with UACC-257 melanoma and with UO-31 renal was > 100 µM throughout.
As for `Cc1ccc2oc(=O)c(-c3ccccc3)nc2c1`, the TGI in the assay with HCT-116 colon is > 100 µM; in the assay on HCT-15 colon, 96.9 µM; with KM12 colon it was 50.4 µM; with MOLT-4 leukemia, > 100 µM; in the assay on OVCAR-5 ovarian, 99.8 µM; in the assay with RPMI-8226 leukemia, > 100 µM. Moreover, the TGI with SNB-75 CNS was > 100 µM; in the assay with SR leukemia it was > 100 µM; in the assay on UACC-257 melanoma, > 100 µM; in the assay with UO-31 renal, 95.1 µM.
For `CC(C)[O-].CC(C)[O-].O=c1cccccc1[O-].O=c1cccccc1[O-].[Ti+4]`, the TGI is > 100 µM in the assay with HCT-116 colon; > 100 µM in the assay on HCT-15 colon; 69.8 µM in the assay with KM12 colon; > 100 µM in the assay on MOLT-4 leukemia; > 100 µM in the assay with OVCAR-5 ovarian; > 100 µM in the assay with RPMI-8226 leukemia. Further, the TGI with SNB-75 CNS, with SR leukemia, in the assay on UACC-257 melanoma and in the assay with UO-31 renal was > 100 µM in each case.
In the case of `O=C(c1cccs1)C1NO[N+]([O-])=C1c1cccs1` (stereo not given), the GI50 in the assay with HCT-116 colon is 3.03 µM; with HCT-15 colon, 3.43 µM; with KM12 colon it was 3.33 µM; in the assay with MOLT-4 leukemia, 2.86 µM; in the assay on OVCAR-5 ovarian it was 7.62 µM; in the assay on RPMI-8226 leukemia it was 2.36 µM. Moreover, the GI50 in the assay with SNB-75 CNS was 1.54 µM; with SR leukemia, 2.08 µM; with UACC-257 melanoma, 5.16 µM; in the assay on UO-31 renal it was 0.27 µM. Further, the TGI was 10.2 µM in the assay on HCT-116 colon; 14.7 µM with HCT-15 colon; 12.1 µM with KM12 colon; 9.19 µM in the assay on MOLT-4 leukemia; 20.4 µM in the assay on OVCAR-5 ovarian; 6.2 µM with RPMI-8226 leukemia. Further, the TGI turned out to be 3.89 µM in the assay on SNB-75 CNS, 4.73 µM with SR leukemia, 15.3 µM with UACC-257 melanoma and 1.47 µM with UO-31 renal.
On to `CCn1c(-c2nonc2N)nc2ccncc21`, for which the GI50 in the assay on HCT-116 colon, with HCT-15 colon, in the assay on KM12 colon, in the assay with MOLT-4 leukemia, in the assay with OVCAR-5 ovarian and in the assay on RPMI-8226 leukemia was > 25 µM throughout. For the same molecule, the GI50 with SNB-75 CNS, in the assay with SR leukemia, in the assay on UACC-257 melanoma and with UO-31 renal was > 25 µM throughout. The TGI with HCT-116 colon, with HCT-15 colon, in the assay with KM12 colon, in the assay on MOLT-4 leukemia, with OVCAR-5 ovarian and with RPMI-8226 leukemia was > 25 µM each time. Moreover, the TGI in the assay with SNB-75 CNS, in the assay on SR leukemia, in the assay with UACC-257 melanoma and in the assay on UO-31 renal was > 25 µM in each case.
Take `COc1cccc(COc2cc(-n3cnc4ccccc43)sc2C(N)=O)c1`: the GI50 with HCT-116 colon was 12.8 µM; in the assay with HCT-15 colon, > 25 µM; in the assay on KM12 colon, 2.42 µM; in the assay with MOLT-4 leukemia, > 14.8 µM; in the assay with OVCAR-5 ovarian, 14.2 µM; in the assay with RPMI-8226 leukemia it was > 25 µM. The GI50 in the assay on SNB-75 CNS is > 12.2 µM; with SR leukemia, 6.98 µM; with UACC-257 melanoma it was > 25 µM; in the assay with UO-31 renal it was > 25 µM. In addition, the TGI with HCT-116 colon, in the assay on HCT-15 colon, in the assay with KM12 colon, in the assay with MOLT-4 leukemia, in the assay on OVCAR-5 ovarian and in the assay on RPMI-8226 leukemia was > 25 µM in each case. Besides, the TGI in the assay with SNB-75 CNS, in the assay on SR leukemia, with UACC-257 melanoma and with UO-31 renal was > 25 µM in each case.
For the molecule `Cc1c(C)c(CC(=O)N2CC2)c(C)c(C)c1CC(=O)N1CC1`, the TGI in the assay on HCT-116 colon was 28.5 µM; in the assay on HCT-15 colon, > 58.2 µM; in the assay with KM12 colon it was 40.3 µM; in the assay with MOLT-4 leukemia, 2.91 µM; with OVCAR-5 ovarian, > 83.8 µM; in the assay on RPMI-8226 leukemia it was 55.5 µM. The TGI in the assay with SNB-75 CNS turned out to be 50.8 µM; with SR leukemia, 4.79 µM; in the assay on UACC-257 melanoma, 50 µM; with UO-31 renal, 38.7 µM.
For `Cc1ccc(-n2nc(C(C)(C)C)cc2NC(=O)NCc2cc(F)ccc2Oc2ccc3c(cnn3CCO)c2)cc1`, the GI50 is 2.34 µM and 2.46 µM with HCT-116 colon; > 10 µM and 8.9 µM with HCT-15 colon; 0.611 µM and 1.22 µM in the assay with KM12 colon; 9.91 µM and 2.05 µM in the assay with MOLT-4 leukemia; > 10 µM and 1.89 µM with OVCAR-5 ovarian; 3.28 µM and 2.7 µM in the assay with RPMI-8226 leukemia. The GI50 was > 10 µM and 14.8 µM in the assay on SNB-75 CNS; > 10 µM and 1.12 µM with SR leukemia; 1.19 µM and 2.32 µM in the assay on UACC-257 melanoma; 1.33 µM and 2.76 µM with UO-31 renal. Moreover, the TGI was > 36.3 µM in the assay with HCT-116 colon; > 100 µM in the assay on HCT-15 colon; > 35.8 µM in the assay with KM12 colon; > 10 µM and 5.23 µM with MOLT-4 leukemia; > 31.6 µM in the assay with OVCAR-5 ovarian; > 10 µM and 28.7 µM with RPMI-8226 leukemia. Moreover, the TGI with SNB-75 CNS was > 100 µM; with SR leukemia it was > 10 µM and 4.33 µM; with UACC-257 melanoma, > 10 µM and 10.4 µM; with UO-31 renal it was > 55.5 µM.
As for `CCCCCCCCCCCCCCCCCCOCC(COCCOCC[N+]1(CCCCCC(=O)[O-])CCCC1)Oc1ncccn1` (stereo not given), the TGI in the assay on HCT-116 colon was 15.8 µM; in the assay on HCT-15 colon, 25.5 µM; in the assay on KM12 colon it was 17.7 µM; with MOLT-4 leukemia it was 20.7 µM; in the assay with OVCAR-5 ovarian it was 13.9 µM; in the assay on RPMI-8226 leukemia, 8.96 µM. The TGI in the assay on SNB-75 CNS came to 12.8 µM; with SR leukemia, 37.1 µM; in the assay with UACC-257 melanoma, 22.7 µM; in the assay with UO-31 renal, 23.6 µM.
